Assay results taken from patent US10399939B2, “Tetrahydronaphthalene estrogen receptor modulators and uses thereof” (Genentech, Inc., priority 2015, dated 2019).

Target: ER-alpha (WT) (Homo sapiens (Human), UniProt P03372)
Experiment: Breast Cancer Cell ERa High Content Fluorescence Imaging Degradation Assay (ER-alpha MCF7 HCS)
Assay type: cell-based
Conditions: MCF7 breast cancer cells; for EC50 / ER-alpha (WT) MCF7 HCS (EC50): 4 hours incubation, inflexion point of curve; for ER-alpha (WT) MCF7 HCS (S inf): plateau of the maximal effect (ERa degradation), DMSO and 5 nM Fulvestrant define 0% and 100% changes in ESR1
Description: Example 901: Breast Cancer Cell ERa High Content Fluorescence Imaging Degradation Assay
MCF7 breast cancer cells were seeded on day 1 at a density of 10,000 cells per well in 384 well poly-lysine coated tissue culture plate (Greiner # T-3101-4), in 50 µL/well RPMI (phenol red free), 10% FBS (Charcoal stripped), containing L-glutamine. […] Compounds and controls were dispensed using a Labcyte Echo acoustic dispenser to dispense compounds with a pre-defined serial dilution (1.8×, 10 point, in duplicate) and appropriate backfill and control compounds (final total volume transferred was 417.5 nL and compound dispense volume ranges from 2.5 nL to 417.5 nL; 0.84% DMSO (v/v) final), ultimately producing a concentration range from 0.05 nM to 835 nM. Cell plates were incubated at 37° C., for 4 hours. Fixation and permeabilization were carried out using a Biotek EL406 plate washer and dispenser as follows. Cells were fixed by addition of 15 μL of 16% paraformaldehyde (Electron Microscopy Sciences #15710-S) directly to the 50 μL cell culture medium in each well using the peristaltic pump 5 μL cassette on a Biotek EL406 (final concentration of formaldehyde was 3.7% w/v). Samples were incubated 30 minutes. Well contents was aspirated and 50 μL/well of Phosphate Buffered Saline (PBS) containing 0.5% w/v bovine serum albumen, 0.5% v/v Triton X-100 (Antibody Dilution Buffer) was added to each well. Samples were incubated for 30 minutes. Well contents were aspirated and washed 3 times with 100 μL/well of PBS. Immunofluorescence staining of estrogen receptor alpha (ESR1) was carried out using a Biotek EL406 plate washer and dispenser as follows. The well supernatant was aspirated from the wells and 25 μL/well of anti-ESR1 mAb (F10) (Santa Cruz sc-8002) diluted 1:1000 in Antibody Dilution Buffer was dispensed. Samples were incubated for 2 hours at room temperature. Samples were washed 4 times with 100 μL/well of PBS. 25 μL (microliters)/well of secondary antibody solution (Alexafluor® 488 conjugate anti-mouse IgG (LifeTechnologies #A21202) diluted 1:1000 and Hoechst 33342 1 μg/ml diluted in Antibody Dilution Buffer) were dispensed into each well. Samples were incubated for 2 hours at room temperature. Samples were washed 3 times with 100 μL/well of PBS using a Biotek EL406. Quantitative fluorescence imaging of ESR1 was carried out using a Cellomics Arrayscan V® (Thermo). Fluorescence images of the samples (Channel 1: XF53 Hoechst (DNA stain); Channel 2: XF53 FITC (ESR1 stain)) were acquired using a Cellomics VTI Arrayscan using the Bioapplication “Compartmental Analysis” using the auto-exposure (based on DMSO control wells) setting “peak target percentile” set to 25% target saturation for both channels. Channel 1 (DNA stain) was used to define the nuclear region (Circ). Measurements of “Mean_CircAvgIntCh2”, which is the Alexafluor 488 fluorescence intensity (ESR1) within the nuclear region, was measured on a per cell basis and averaged over all the measured cells. Data analysis was carried out using Genedata Screener Software, with DMSO and 5 nM Fulvestrant treated samples being used to define the 0% and 100% changes in ESR1. The “Robust Fit” method was used to define the inflexion point of curve (EC50) and the plateau of the maximal effect (Sinf).

Chain of ER-alpha (WT) (P03372 whole entry): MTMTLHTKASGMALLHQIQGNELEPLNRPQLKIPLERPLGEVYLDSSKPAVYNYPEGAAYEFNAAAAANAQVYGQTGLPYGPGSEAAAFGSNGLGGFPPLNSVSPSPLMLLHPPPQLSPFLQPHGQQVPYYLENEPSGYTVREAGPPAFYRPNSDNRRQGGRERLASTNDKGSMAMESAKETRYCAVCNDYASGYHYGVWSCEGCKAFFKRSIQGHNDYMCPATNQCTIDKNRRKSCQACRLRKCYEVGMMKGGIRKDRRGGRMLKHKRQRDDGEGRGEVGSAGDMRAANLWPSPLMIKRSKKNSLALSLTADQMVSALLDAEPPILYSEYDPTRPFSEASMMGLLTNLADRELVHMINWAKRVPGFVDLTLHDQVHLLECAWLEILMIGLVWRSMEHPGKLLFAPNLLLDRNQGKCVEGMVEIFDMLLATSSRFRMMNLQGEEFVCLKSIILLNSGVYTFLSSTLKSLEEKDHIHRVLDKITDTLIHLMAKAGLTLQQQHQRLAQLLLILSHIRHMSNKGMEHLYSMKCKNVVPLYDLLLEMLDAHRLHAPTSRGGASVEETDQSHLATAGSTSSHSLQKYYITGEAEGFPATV

SMILES	EC50	ER-alpha (WT) MCF7 HCS (S inf)	ER-alpha (WT) MCF7 HCS (EC50)
Oc1ccc2c(c1)CC[C@H](c1ccccc1)[C@@H]2c1ccc(OCCN2CC(CF)C2)cc1 [Compound 101, (1R,2S)-1-[4-[2-[3-(fluoromethyl)azetidin-1-yl]ethoxy]phenyl]-2-phenyl-tetralin-6-ol]	0.371 nM	−100%	
Oc1ccc2c(c1)CC[C@@H](c1ccccc1)[C@H]2c1ccc(OCCN2CCC(CF)C2)cc1 (stereo partly drawn) [Compound 114, (5S,6R)-5-(4-(2-(3-(fluoromethyl)pyrrolidin-1-yl)ethoxy)phenyl)-6-phenyl-5,6,7,8-tetrahydronaphthalen-2-ol]	0.1 nM	−94.2%	
Oc1ccc2c(c1)CC[C@H](c1ccc(F)cc1)[C@@H]2c1ccc(OCCN2CC(CF)C2)cc1 [Compound 106, (1R,2S)-1-[4-[2-[3-(fluoromethyl)azetidin-1-yl]ethoxy]phenyl]-2-(4-fluorophenyl)tetralin-6-ol]	0.977 nM	−97%	
Oc1ccc2c(c1)CC[C@H](c1ccccc1)[C@@H]2c1ccc(OCCN2CCCC2)cc1 [lasofoxifene, (5R,6S)-6-phenyl-5-(4-(2-(pyrrolidin-1-yl)ethoxy)phenyl)-5,6,7,8-tetrahydronaphthalen-2-ol, reference compound]		−73.5%	
C[C@@H](COc1ccc([C@@H]2c3ccc(O)cc3CC[C@@H]2c2ccccc2)cc1)N1CC[C@@H](CF)C1 [Compound 123, (5R,6S)-5-(4-((S)-2-((R)-3-(fluoromethyl)pyrrolidin-1-yl)propoxy)phenyl)-6-phenyl-5,6,7,8-tetrahydronaphthalen-2-ol]	16.9 nM	−30%	
Oc1ccc2c(c1)CC[C@H](c1ccccc1)[C@@H]2c1ccc(OCCN2CC(CCl)C2)cc1 [Compound 112, (5R,6S)-5-(4-(2-(3-(chloromethyl)azetidin-1-yl)ethoxy)phenyl)-6-phenyl-5,6,7,8-tetrahydronaphthalen-2-ol]	50.9 nM	−35%	
CS(=O)(=O)c1ccc([C@H]2CCc3cc(O)ccc3[C@H]2c2ccc(OCCN3CC(CF)C3)cc2)cc1 [Compound 117, (5R,6S)-5-(4-(2-(3-(fluoromethyl)azetidin-1-yl)ethoxy)phenyl)-6-(4-(methylsulfonyl)phenyl)-5,6,7,8-tetrahydronaphthalen-2-ol]	0.227 nM	−91.4%	
Oc1ccc2c(c1)CC[C@@H](c1ccccc1)[C@H]2c1ccc(NC2CN(CCCF)C2)cc1 [Compound 131, (5S,6R)-5-(4-((1-(3-fluoropropyl)azetidin-3-yl)amino)phenyl)-6-phenyl-5,6,7,8-tetrahydronaphthalen-2-ol]	13.8 nM	−35%	
Oc1ccc2c(c1)CC[C@H](C1CCC(F)(F)CC1)[C@@H]2c1ccc(OCCN2CC(CF)C2)cc1 [Compound 110, (5R,6R)-6-(4,4-difluorocyclohexyl)-5-(4-(2-(3-(fluoromethyl)azetidin-1-yl)ethoxy)phenyl)-5,6,7,8-tetrahydronaphthalen-2-ol]	0.177 nM	−98.2%	
Oc1cccc2c1[C@H](c1ccc(OCCN3CC(CF)C3)cc1)[C@H](c1ccccc1)CC2 [Compound 136, (7R,8S)-8-(4-(2-(3-(fluoromethyl)azetidin-1-yl)ethoxy)phenyl)-7-phenyl-5,6,7,8-tetrahydronaphthalen-1-ol]	186 nM	−80%	
Oc1ccc2c(c1)CC[C@H](c1ccccc1)[C@@H]2c1ccc(OCCN2CCC(CF)C2)cc1 (stereo partly drawn) [Compound 111, (5R,6S)-5-(4-(2-(3-(fluoromethyl)pyrrolidin-1-yl)ethoxy)phenyl)-6-phenyl-5,6,7,8-tetrahydronaphthalen-2-ol]	47 nM	−55%	
Oc1ccc2c(c1)CC[C@@H](c1ccccc1)[C@H]2c1ccc(OCCN2CC(CF)C2)cc1F [Compound 119, (5R,6R)-5-(2-fluoro-4-(2-(3-(fluoromethyl)azetidin-1-yl)ethoxy)phenyl)-6-phenyl-5,6,7,8-tetrahydronaphthalen-2-ol]	16.5 nM	−85%	
Oc1ccc2c(c1)CC[C@@H](c1ccccc1)[C@H]2c1ccc(NCCN2CC[C@@H](CF)C2)cc1 [Compound 140, (5S,6R)-5-(4-((2-((R)-3-(fluoromethyl)pyrrolidin-1-yl)ethyl)amino)phenyl)-6-phenyl-5,6,7,8-tetrahydronaphthalen-2-ol]	0.773 nM	−45%	

Other lines, results leading:

EC50	ER-alpha (WT) MCF7 HCS (S inf)	ER-alpha (WT) MCF7 HCS (EC50)	SMILES
		>0.10 µmol	Oc1ccc2c(c1)CC[C@@H](c1ccccc1)[C@H]2c1ccc(OCCN2CC(C(F)F)C2)cc1 [Compound 116, (5S,6R)-5-(4-(2-(3-(difluoromethyl)azetidin-1-yl)ethoxy)phenyl)-6-phenyl-5,6,7,8-tetrahydronaphthalen-2-ol]
0.164 nM	−95.2%		Oc1ccc2c(c1)CC[C@@H](C1CCOCC1)[C@H]2c1ccc(OCCN2CC(CF)C2)cc1 [Compound 109, (5S,6S)-5-(4-(2-(3-(fluoromethyl)azetidin-1-yl)ethoxy)phenyl)-6-(tetrahydro-2H-pyran-4-yl)-5,6,7,8-tetrahydronaphthalen-2-ol]
0.203 nM	−89.89%		Oc1ccc2c(c1)CC[C@@H](c1ccccc1)[C@H]2c1ccc(NCCN2CC(CF)C2)cc1 [Compound 138, (5S,6R)-5-(4-((2-(3-(fluoromethyl)azetidin-1-yl)ethyl)amino)phenyl)-6-phenyl-5,6,7,8-tetrahydronaphthalen-2-ol]
0.0461 nM	−96.5%		Oc1ccc2c(c1)CC[C@H](c1ccccc1)[C@@H]2c1ccc(OCCN2CC(CF)C2)nc1 [Compound 127, (5S,6S)-5-(6-(2-(3-(fluoromethyl)azetidin-1-yl)ethoxy)pyridin-3-yl)-6-phenyl-5,6,7,8-tetrahydronaphthalen-2-ol]
29.8 nM	−82%		Oc1cccc2c1[C@@H](c1ccc(OCCN3CC(CF)C3)cc1)[C@@H](c1ccccc1)CC2 [Compound 135, (7S,8R)-8-(4-(2-(3-(fluoromethyl)azetidin-1-yl)ethoxy)phenyl)-7-phenyl-5,6,7,8-tetrahydronaphthalen-1-ol]
12.5 nM	−84%		Oc1ccc2c(c1)CC[C@@H](c1ccccc1)[C@H]2c1ccc(OCCN2CC(CF)C2)nc1 [Compound 128, (5R,6R)-5-(6-(2-(3-(fluoromethyl)azetidin-1-yl)ethoxy)pyridin-3-yl)-6-phenyl-5,6,7,8-tetrahydronaphthalen-2-ol]
14.6 nM	−97%		Oc1ccc2c(c1)CC[C@@H](C1CCC(F)(F)CC1)[C@H]2c1ccc(OCCN2CC(CF)C2)cc1 [Compound 108, (5S,6S)-6-(4,4-difluorocyclohexyl)-5-(4-(2-(3-(fluoromethyl)azetidin-1-yl)ethoxy)phenyl)-5,6,7,8-tetrahydronaphthalen-2-ol]
		>0.10 µmol	C[C@H](CN1CC[C@@H](CF)C1)Oc1ccc([C@@H]2c3ccc(O)cc3CC[C@@H]2c2ccccc2)cc1 [Compound 125, (5R,6S)-5-(4-(((R)-1-((R)-3-(fluoromethyl)pyrrolidin-1-yl)propan-2-yl)oxy)phenyl)-6-phenyl-5,6,7,8-tetrahydronaphthalen-2-ol]
